Laboratory results as given in US8519154B2, “Method for treatment of bronchial asthma” (Council of Scientific & Industrial Research, priority 2011, dated 2013).

Tested on: Male wistar rats
Test: Blood pressure, heart rate and respiratory rate by telemetry
Assay type: in vivo
Design: RR: unit not given beside the values
Conditions: for RR / HR / DBP / SBP: 50 mg/kg i.v.; for HR: in bpm (unit assumed); for DBP / SBP: in mmHg (unit assumed)
Description: Male wistar rats of approximately 6 months of age were anaesthetised with a mixture of ketamine (40 mg/kg) and xylazine (5 mg/kg) and fitted with TL11M2-C50PXT telemetry transmitters (Data Sciences Intl., St. Paul, Minn., USA) in the peritoneal cavity by performing surgery. Experiments were performed 15 days after surgery. Individual rats were placed in plastic cage on top of a receiver (RLA 2000, Data Science) for the measurement of systolic BP, diastolic BP, Heart rate and respiratory rate. The signals from the transmitters were received by two RLA 2000 receivers and transmitted via a Data Exchange Matrix to a Dataquest PCI card CQ 2240 in the computer. The data were interpreted by the Dataquest program A.R.T. version 2.2 Gold Version.

COc1cc(C=O)cc2c1[nH]c1ccccc12 [Compound I, 1-methoxy-3-formyl-9H carbazole] was tested, and the RR (0 mins) was 89.4 ± 1.4, the HR (0 mins) was 242.1 ± 9.7 and the DBP (0 mins) was 71.7 ± 10.2. For the same compound, the SBP (0 mins) was 112 ± 2.89, the RR (1 hr) was 85.77 ± 8.9 and the HR (1 hr) was 309.1 ± 45.9. It also gave a DBP (1 hr) of 82.1 ± 4.5, an SBP (1 hr) of 115.4 ± 3.6 and an RR (2 hr) of 89.5 ± 2.56. The HR (2 hr) was 261 ± 13.8, the DBP (2 hr) was 77.5 ± 6.07 and the SBP (2 hr) was 114.5 ± 2.8. The RR (3 hr) was 84.5 ± 3.5, the HR (3 hr) was 272.7 ± 17.5 and the DBP (3 hr) was 78.5 ± 8.1. For the same compound, the SBP (3 hr) was 110.2 ± 4.5, the RR (4 hr) was 96.3 ± 2.1 and the HR (4 hr) was 273.1 ± 17.06. For the same compound, the DBP (4 hr) was 75.9 ± 8.2, the SBP (4 hr) was 108.7 ± 5.2 and the “change in blood pressure, heart rate and respiratory rate” value (rats, before and after treatment) was “No significant change in blood pressure, heart rate and respiratory rate”.
